Test systems include CCRF-CEM leukemia; HOP-62 NSCLC; HT29 colon; IGROV1 ovarian; K-562 leukemia; MDA-MB-435; NCI-H522 lung; SF-268 CNS; SF-295 CNS; SK-MEL-28 melanoma.
What all share (assay): NCI anticancer screen, dose series, 48 h

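96-well plates; 48 h exposure; 5 concentrations. Endpoints by linear interpolation between flanking doses. Not reached: highest tested concentration assigned. The concentration for 50% growth inhibition is given as GI50. TGI: total growth inhibition.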 A value given as a limit tells only on which side of the number the result lay.

As to `O=C1/C(=C/c2ccccc2)CN(C(=O)CCN2CCOCC2)C/C1=C\c1ccccc1`, the TGI was found to be 9.81 µM in the experiment with CCRF-CEM leukemia; 17.3 µM in the experiment on HOP-62 NSCLC; 3.8 µM with HT29 colon; 18.8 µM with IGROV1 ovarian; 4.18 µM in the experiment on K-562 leukemia; 3.58 µM in the experiment with MDA-MB-435. The TGI in the experiment with NCI-H522 lung came to 4.46 µM; in the experiment on SF-268 CNS, 8.73 µM; in the experiment on SF-295 CNS it was 6.86 µM; in the experiment with SK-MEL-28 melanoma, 3.41 µM.

Take `Cn1ncnc1[C@H]1c2n[nH]c(=O)c3cc(F)cc(c23)N[C@@H]1c1ccc(F)cc1`: the GI50 in the experiment with CCRF-CEM leukemia was 1270 nM; in the experiment with HOP-62 NSCLC it was 5.81 µM; in the experiment with HT29 colon it was > 100 µM; in the experiment with IGROV1 ovarian, 74.1 µM; in the experiment with K-562 leukemia it was > 100 µM; in the experiment on MDA-MB-435, > 100 µM. Further, the GI50 is > 100 µM with NCI-H522 lung, 3.07 µM in the experiment on SF-268 CNS, 440 nM in the experiment on SF-295 CNS and > 100 µM in the experiment on SK-MEL-28 melanoma. Also, the TGI with CCRF-CEM leukemia, in the experiment with HOP-62 NSCLC, in the experiment on HT29 colon, in the experiment with IGROV1 ovarian, in the experiment with K-562 leukemia and in the experiment with MDA-MB-435 was > 100 µM in each case. Also, the TGI in the experiment with NCI-H522 lung was > 100 µM; in the experiment on SF-268 CNS, > 100 µM; in the experiment on SF-295 CNS it was > 19.9 µM; with SK-MEL-28 melanoma, > 100 µM.

Source of the values: PubChem BioAssay (NCI).
